Measured values published in patent US6548687B1, “Chromium L-threonate, process for preparation of the same and their use” (priority 1998, dated 2003).
Like-named read-outs stand apart in the source and are kept apart here.

Experiments:
[1] = for Stable Constant: coordination compound of L-threonic acid and chromic ion, deduced with computer simulation from titration curves; for pH: pH range of the coordination compound model, deduced with computer simulation
[2] = Precipitation of chromic hydroxide as a function of pH; type: physicochemical

For `O=C(O)[C@H](O)[C@@H](O)CO.[O]=[Cr](=[O])([OH])[OH]` [Model A, chromate L-threonate], the “Stable Constant” value ([1]; listed as A) was −4.42 ± 0.14 and the pH ([1]; listed as A) was “˜4.5”.

For `O=C(O)[C@H](O)[C@@H](O)CO.[O]=[Cr](=[O])([OH])[OH]` [Model B, chromate L-threonate], the “Stable Constant” value ([1]; listed as B) was −0.74 ± 0.34 and the pH ([1]; listed as B) was 3.5-4.0.

With `O=C(O)[C@H](O)[C@@H](O)CO.[O]=[Cr](=[O])([OH])[OH]` [Model C, chromate L-threonate] the “Stable Constant” value ([1]; listed as C) was −9.35 ± 0.26 and the pH ([1]; listed as C) was “˜6.0”.

For `O=C(O)[C@H](O)[C@@H](O)CO.[O]=[Cr](=[O])([OH])[OH]` [chromate L-threonate], the dissolution (in alcohol and ether) was “no dissolution”, the dissolution (in water) was “dissolution in water” and the “precipitate of chromic hydroxide” value ([2]; even in basic condition) was “no precipitate”.

For `[Cl][Cr]([Cl])[Cl]` [chromic chloride], the “pH at which solution forms precipitate” value [2] was roughly 4.

In the case of `O=S(=O)([O-])[O-].O=S(=O)([O-])[O-].O=S(=O)([O-])[O-].[Cr+3].[Cr+3]` [chromic sulphate], the “pH at which solution forms precipitate” value [2] is reported as roughly 4.
